Measurements: US7915276B2, “Berberrubine derivatives having antifungal activities” (priority 2006, dated 2011)

Legend:
[1] = target: T1, chitin synthase 1 of Candida albicans chs2 Δ chs 3 Δ (Candida albicans, UniProt P23316); experiment: In vitro enzyme assay for chitin synthase 1 of Candida albicans (enzyme 1); assay type: biochemical; conditions: relative to polyoxin D (50% inhibitory activity = value 5)
T1 construct: Crude enzyme was prepared using the Candida albicans chs2 Δ chs 3 Δ mutant; endogenous in cells; host or cells: Candida albicans chs2Δ/chs2Δ chs3Δ/chs3Δ mutant; 130,000 x g membrane pellet
Method: Crude enzyme was prepared using the Candida albicans chs2 Δ chs 3 Δ mutant (chs2 Δ::hisG/chs2 Δ::hisG chs3 Δ::hisG/chs3 Δ::hisG) strain, which can only produce the chitin synthase 1. The strain was inoculated with the SDA (Sabouraud dextrose agar) culture medium (4% dextrose, 1% peptone, pH 5.6) and cultured at 30° C. for 15-17 hours until the absorbance at 550nm reaches 0.7. The cells were collected and suspended in a 50 mM Tris-HCl (pH 7.5) buffer solution containing 5 mM magnesium acetate. After centrifugation at 8,000×g for 10 minutes, the pellets were suspended in the same Tris-HCl buffer solution. The suspension was divided into aliquots in 50 mL conical test tubes. After adding glass beads, the cells were disrupted by vigorously vortexing with an interval of 30 seconds. The cell residues were removed by centrifuging at 3,000×g for 5 minutes. The supernatant was ultra-centrifuged at 130,000×g for 1 hour. The resultant pellets were collected and suspended in 50 mM Tris-HCl (pH 7.5) containing 33% glycerol, to a final volume of 1.6 mg/g (wet weight) of yeast used. The suspension was divided into aliquots and kept at −70° C. until it is used.
(§1) The inhibitory activities against the chitin synthase 1 of Candida albicans chs2 Δ chs 3 Δ (abbreviated as ‘enzyme 1’) and the chitin synthase 2 of Saccharomyces cerevisiae ECY38-38A(pAS6)(abbreviated as ‘enzyme 2’) was examined for compound Nos. 1 to 70 compound and polyoxin D, a positive control compound.
(§2) The inhibitory activity against the chitin synthase 1 prepared from Candida albicans and the chitin synthase 2 prepared from Saccharomyces cerevisiae were examined as follows. A reaction mixture containing 32 mM Tris-HCl (pH 7.5), 2 mM cobalt acetate, 1.1 mM UDP-[U-^14C]-N-acetyl-d-glucosamine (GlcNAc) (400,000 cpm/μmol), 2 μL of trypsin (0.75 mg/mL), 20 μL of each crude enzyme and 14 μL of each test sample was kept at 30° C. for 15 minutes to activate the enzyme. Then, 2 μL of trypsin inhibitor (1.5 mg/mL) was added and the mixture was kept in an ice bath for 10 minutes to deactivate trypsin. 2 μL of 0.8 M N-acetyl-d-glucosamine was added to a total volume of 50 μL and reaction was performed at 30° C. for 90 minutes. The reaction was stopped using 1 mL of 10% TCA solution and the reaction solution was filtered with a GF/C filter and dried at room temperature. After adding 3 mL of a scintillation cocktail solution, the amount of isotopes was measured using a liquid scintillation counter. Percentage inhibition against each enzyme was calculated by the following Equation 1.
(§3) The control group was not added with a test sample in the reaction mixture and that of the untreated group contained neither the test sample nor the crude enzyme.
(§4) A 50% inhibitory activity of polyoxin D against the enzyme was given the value 5. A compound having the same inhibitory activity as that of polyoxin D at the same concentration was given the value 5. Compounds having the inhibitory activity at 2-fold, 4-fold, 8-fold and 16-fold higher concentrations than that of polyoxin D were given the values of 4, 3, 2 and 1, respectively. On the other hand, compounds having the inhibitory activity at ½, ¼ and ⅛ lower concentrations than that of polyoxin D were given the values of 6, 7 and 8, respectively.

[2] = target: T2, chitin synthase 2 of Saccharomyces cerevisiae ECY38-38A(pAS6) (Saccharomyces cerevisiae, UniProt P14180); experiment: In vitro enzyme assay for chitin synthase 2 of Saccharomyces cerevisiae (enzyme 2); assay type: biochemical; conditions: relative to polyoxin D (50% inhibitory activity = value 5)
T2 construct: made in house; host or cells: Saccharomyces cerevisiae ECY38-38A (chs1-23 chs2::LEU2 cal1/csd2) carrying plasmid pAS6, grown in galactose medium; 130,000 x g membrane pellet
Method: Crude enzyme was prepared using the recombinant Saccharomyces cerevisiae ECY38-38A(pAS6) (MATa chs1-23 chs2::LEU2 cal 1/csd 2 ura 3-52 trp 1-1 leu 2-2 pAS6) strain, which can produce the chitin synthase 2 only. The strain was inoculated with the YPG culture medium (1% yeast extract, 2% peptone, 2% galactose) and cultured at 30° C. overnight. Then, it was inoculated with a fresh YPG culture medium and cultured for 15-17 hours until the Absorbance at 550 nm reaches 1.0. The cells were collected and suspended in 50 mM Tris-HCl (pH 7.5) buffer containing 5 mM magnesium acetate. After centrifugation at 8,000×g for 10 minutes, the pellets were suspended in the same Tris-HCl buffer solution. The suspension was divided into aliquots in 50 mL conical test tubes. After adding the glass beads, the cells were disrupted by vigorously vortexing with an interval of 30 seconds. The cell residues were removed by centrifuging at 3,000×g for 5 minutes. The supernatant was ultra-centrifuged at 130,000×g for 1 hour. The resultant pellets were collected and suspended in 50 mM Tris-HCl (pH 7.5) containing 33% glycerol, to a final volume of 1.6 mg/g (wet weight) of yeast used. The suspension was divided into aliquots and kept at −70° C. until it is used.
as §1, §2, §3, §4

T1 sequence (P23316 whole entry, stated change not applied): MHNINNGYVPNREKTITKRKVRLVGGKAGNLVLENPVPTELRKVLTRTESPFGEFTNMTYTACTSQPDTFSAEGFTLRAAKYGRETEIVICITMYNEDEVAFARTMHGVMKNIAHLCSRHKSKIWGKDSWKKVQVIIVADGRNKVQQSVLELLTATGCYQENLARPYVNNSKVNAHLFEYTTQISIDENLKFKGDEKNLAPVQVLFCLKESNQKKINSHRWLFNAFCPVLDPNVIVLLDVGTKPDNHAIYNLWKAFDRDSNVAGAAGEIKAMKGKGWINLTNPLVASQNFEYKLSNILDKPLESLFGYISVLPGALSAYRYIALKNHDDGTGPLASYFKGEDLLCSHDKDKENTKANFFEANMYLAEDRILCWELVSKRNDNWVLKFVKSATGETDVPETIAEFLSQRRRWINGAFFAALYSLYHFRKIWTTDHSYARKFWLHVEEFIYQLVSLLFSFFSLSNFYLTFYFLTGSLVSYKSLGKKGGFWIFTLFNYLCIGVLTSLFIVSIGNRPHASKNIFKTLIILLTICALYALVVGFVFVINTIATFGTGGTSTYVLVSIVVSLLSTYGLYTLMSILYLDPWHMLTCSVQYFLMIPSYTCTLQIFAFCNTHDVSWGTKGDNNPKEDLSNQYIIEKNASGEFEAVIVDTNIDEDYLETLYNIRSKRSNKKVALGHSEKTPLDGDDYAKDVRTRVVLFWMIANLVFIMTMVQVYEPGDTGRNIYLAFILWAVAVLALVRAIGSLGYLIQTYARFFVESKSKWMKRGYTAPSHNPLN
T2 sequence (P14180 whole entry): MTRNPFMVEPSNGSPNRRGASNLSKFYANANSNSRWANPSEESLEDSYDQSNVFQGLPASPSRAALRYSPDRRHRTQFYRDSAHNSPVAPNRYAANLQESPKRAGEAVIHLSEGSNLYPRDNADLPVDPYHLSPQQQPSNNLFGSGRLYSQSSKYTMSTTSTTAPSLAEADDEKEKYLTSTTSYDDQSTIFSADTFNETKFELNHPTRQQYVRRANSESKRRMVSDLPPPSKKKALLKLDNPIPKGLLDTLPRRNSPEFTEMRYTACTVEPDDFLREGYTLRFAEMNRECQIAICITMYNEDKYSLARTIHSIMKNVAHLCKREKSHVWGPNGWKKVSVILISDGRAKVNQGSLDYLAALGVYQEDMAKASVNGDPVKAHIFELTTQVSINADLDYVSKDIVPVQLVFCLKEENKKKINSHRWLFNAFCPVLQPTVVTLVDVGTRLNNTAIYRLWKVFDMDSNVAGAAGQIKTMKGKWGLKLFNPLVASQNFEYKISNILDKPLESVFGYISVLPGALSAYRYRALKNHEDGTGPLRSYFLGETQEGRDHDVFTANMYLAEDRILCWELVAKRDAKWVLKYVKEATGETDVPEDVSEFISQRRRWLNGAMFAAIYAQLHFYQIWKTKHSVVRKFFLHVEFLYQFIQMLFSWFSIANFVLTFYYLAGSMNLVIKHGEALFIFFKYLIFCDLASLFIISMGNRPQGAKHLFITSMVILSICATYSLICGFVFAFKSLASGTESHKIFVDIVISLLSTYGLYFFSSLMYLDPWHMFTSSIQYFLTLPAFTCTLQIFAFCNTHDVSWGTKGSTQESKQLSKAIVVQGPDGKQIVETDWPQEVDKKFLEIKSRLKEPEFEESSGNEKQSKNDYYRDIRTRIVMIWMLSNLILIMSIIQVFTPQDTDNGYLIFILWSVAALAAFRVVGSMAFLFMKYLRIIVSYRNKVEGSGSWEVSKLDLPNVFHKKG

Compound | Relative activity Enzyme 1 [1] | Relative activity Enzyme 2 [2]
COc1ccc2c(Cc3ccc(C(F)(F)F)cc3)c3[n+](cc2c1OCc1ccc(C(C)(C)C)cc1)CCc1cc2c(cc1-3)OCO2.[Cl-] [Compound No. 70, 13-(4-Trifluoromethylbenzyl)-9-O-(4-tert-butylbenzyl)berberrubine chloride] | 2 (Compounds having the inhibitory activity at 2-fold, 4-fold, 8-fold and 16-fold higher concentrations than that of polyoxin D were given the values of 4, 3, 2 and 1, respectively) | 5 (A compound having the same inhibitory activity as that of polyoxin D at the same concentration was given the value 5)
13-(4-Trifluoromethoxybenzyl)-9-O-butylberberrubine iodide [Compound No. 33] | 3 (Compounds having the inhibitory activity at 2-fold, 4-fold, 8-fold and 16-fold higher concentrations than that of polyoxin D were given the values of 4, 3, 2 and 1, respectively) | 6 (compounds having the inhibitory activity at ½, ¼ and ⅛ lower concentrations than that of polyoxin D were given the values of 6, 7 and 8, respectively)
13-(3,4,5-Trimethoxybenzyl)-9-O-hexylberberrubine iodide [Compound No. 31] | 2 (Compounds having the inhibitory activity at 2-fold, 4-fold, 8-fold and 16-fold higher concentrations than that of polyoxin D were given the values of 4, 3, 2 and 1, respectively) | 4 (Compounds having the inhibitory activity at 2-fold, 4-fold, 8-fold and 16-fold higher concentrations than that of polyoxin D were given the values of 4, 3, 2 and 1, respectively)
13-(4-Trifluoromethoxybenzyl)berberrubine [Compound No. 3] | 1 (Compounds having the inhibitory activity at 2-fold, 4-fold, 8-fold and 16-fold higher concentrations than that of polyoxin D were given the values of 4, 3, 2 and 1, respectively) | 3 (Compounds having the inhibitory activity at 2-fold, 4-fold, 8-fold and 16-fold higher concentrations than that of polyoxin D were given the values of 4, 3, 2 and 1, respectively)
COc1ccc2c(Cc3ccc(OC(F)(F)F)cc3)c3[n+](cc2c1OCc1ccc(C(C)(C)C)cc1)CCc1cc2c(cc1-3)OCO2.[Br-] [Compound No. 35, 13-(4-Trifluoromethoxybenzyl)-9-O-(4-tert-butylbenzyl)berberrubine bromide] | 2 (Compounds having the inhibitory activity at 2-fold, 4-fold, 8-fold and 16-fold higher concentrations than that of polyoxin D were given the values of 4, 3, 2 and 1, respectively) | 5 (A compound having the same inhibitory activity as that of polyoxin D at the same concentration was given the value 5)
13-(3,4,5-Trifluorobenzyl)-9-O-hexylberberrubine chloride [Compound No. 60] | 2 (Compounds having the inhibitory activity at 2-fold, 4-fold, 8-fold and 16-fold higher concentrations than that of polyoxin D were given the values of 4, 3, 2 and 1, respectively) | 5 (A compound having the same inhibitory activity as that of polyoxin D at the same concentration was given the value 5)
13-(4-Trifluoromethylbenzyl)-9-O-butylberberrubine chloride [Compound No. 68] | 3 (Compounds having the inhibitory activity at 2-fold, 4-fold, 8-fold and 16-fold higher concentrations than that of polyoxin D were given the values of 4, 3, 2 and 1, respectively) | 6 (compounds having the inhibitory activity at ½, ¼ and ⅛ lower concentrations than that of polyoxin D were given the values of 6, 7 and 8, respectively)
13-(3,4,5-Trimethoxybenzyl)-9-O-hexylberberrubine chloride [Compound No. 63] | 2 (Compounds having the inhibitory activity at 2-fold, 4-fold, 8-fold and 16-fold higher concentrations than that of polyoxin D were given the values of 4, 3, 2 and 1, respectively) | 4 (Compounds having the inhibitory activity at 2-fold, 4-fold, 8-fold and 16-fold higher concentrations than that of polyoxin D were given the values of 4, 3, 2 and 1, respectively)
COc1ccc2c(Cc3cc(F)c(F)c(F)c3)c3[n+](cc2c1OCc1ccc(C(C)(C)C)cc1)CCc1cc2c(cc1-3)OCO2.[Br-] [Compound No. 29, 13-(3,4,5-Trifluorobenzyl)-9-O-(4-tert-butylbenzyl)berberrubine bromide] | 2 (Compounds having the inhibitory activity at 2-fold, 4-fold, 8-fold and 16-fold higher concentrations than that of polyoxin D were given the values of 4, 3, 2 and 1, respectively) | 5 (A compound having the same inhibitory activity as that of polyoxin D at the same concentration was given the value 5)
COc1ccc2c(Cc3cc(F)c(F)c(F)c3)c3[n+](cc2c1OCc1ccc(C(C)(C)C)cc1)CCc1cc2c(cc1-3)OCO2.[Cl-] [Compound No. 61, 13-(3,4,5-Trifluorobenzyl)-9-O-(4-tert-butylbenzyl)berberrubine chloride] | 2 (Compounds having the inhibitory activity at 2-fold, 4-fold, 8-fold and 16-fold higher concentrations than that of polyoxin D were given the values of 4, 3, 2 and 1, respectively) | 4 (Compounds having the inhibitory activity at 2-fold, 4-fold, 8-fold and 16-fold higher concentrations than that of polyoxin D were given the values of 4, 3, 2 and 1, respectively)
13-(3,4,5-trimethoxybenzyl)-9-O-butylberberrubine iodide [Compound No. 30] | 2 (Compounds having the inhibitory activity at 2-fold, 4-fold, 8-fold and 16-fold higher concentrations than that of polyoxin D were given the values of 4, 3, 2 and 1, respectively) | 5 (A compound having the same inhibitory activity as that of polyoxin D at the same concentration was given the value 5)
13-(3,4,5-trifluorobenzyl)-9-O-butylberberrubine chloride [Compound No. 59] | 3 (Compounds having the inhibitory activity at 2-fold, 4-fold, 8-fold and 16-fold higher concentrations than that of polyoxin D were given the values of 4, 3, 2 and 1, respectively) | 5 (A compound having the same inhibitory activity as that of polyoxin D at the same concentration was given the value 5)
COc1cc(Cc2c3[n+](cc4c(OCc5ccc(C(C)(C)C)cc5)c(OC)ccc24)CCc2cc4c(cc2-3)OCO4)cc(OC)c1OC.[Cl-] [Compound No. 64, 13-(3,4,5-Trimethoxybenzyl)-9-O-(4-tert-butylbenzyl)berberrubine chloride] | 2 (Compounds having the inhibitory activity at 2-fold, 4-fold, 8-fold and 16-fold higher concentrations than that of polyoxin D were given the values of 4, 3, 2 and 1, respectively) | 4 (Compounds having the inhibitory activity at 2-fold, 4-fold, 8-fold and 16-fold higher concentrations than that of polyoxin D were given the values of 4, 3, 2 and 1, respectively)
